In patent publication US12440486B2, “RBP4 antagonists for treatment and prevention of non-alcoholic fatty liver disease and gout” (The Trustees of Columbia University in the City of New York, priority 2018, dated 2025):

Legend:
RBP4 [1] = target: T1, RBP4 (Homo sapiens, UniProt P02753); assay: SPA assay measuring displacement of 3H-retinol from purified human RBP4; type: binding; conditions: for IC50: binding to human RBP4, 3H-retinol at 10 nM as radioligand; for ability to function as RBP4 ligands (competition binding): displacement of radioactive retinol from purified human RBP4
Description: 3H-retinol at 10 nM was used as a radioligand. […] Contacting residues are labeled and illustrated in stick format (MOE, Chemical Computing Group, Inc., Montreal, CA).
The affinity of palmitic acid, oleic acid, linoleic acid, and docosahexaenoic acid for RBP4 was tested using a SPA assay that measures displacement of radioactive retinol from purified human RBP4 (FIG. 21A).

RBP4 [2] = target: RBP4 (Rattus norvegicus, UniProt P04916); conditions: Adams 1995; cited from earlier work
RBP4 [3] = target: T1, RBP4; conditions: Berni 1992; cited from earlier work
ob/ob mice = ob/ob mice fed a high-fat diet, Koh 2012; cited from earlier work
RBP4-TTR interaction = RBP4-TTR interaction (Homo sapiens, UniProt P02753); conditions: Berni 1992, Schaffer 1993; cited from earlier work

| SMILES | IC50 (RBP4 [1]) [µM] | ability to function as RBP4 ligands (competition binding) (RBP4 [1]) | serum RBP4 and retinol (RBP4 [2]) | binding to RBP4 (RBP4 [3]) | weight gain, insulin resistance and fatty liver (ob/ob mice) | RBP4-TTR interaction (RBP4-TTR interaction) |
| --- | --- | --- | --- | --- | --- | --- |
| CCCCCCCCCCCCCCCC(=O)O [palmitic acid] | 22.6 | weak RBP4 ligands | – | – | – | – |
| CCCCCCCC/C=C\CCCCCCCC(=O)O [oleic acid] | 33 | weak RBP4 ligands | – | – | – | – |
| CC/C=C\C/C=C\C/C=C\C/C=C\C/C=C\C/C=C\CCC(=O)O [Docosahexanoic acid (DHA), docosahexaenoic acid] | 49.9 | – | – | – | – | – |
| CCCCC/C=C\C/C=C\CCCCCCCC(=O)O [linoleic acid] | 17.3 | weak RBP4 ligands | – | – | – | – |
| CC1=C(/C=C/C(C)=C/C=C/C(C)=C/C(=O)Nc2ccc(O)cc2)C(C)(C)CCC1 [fenretinide, N-(4-hydroxy-phenyl)retinamide] | – | – | reduce serum RBP4 and retinol | bind to RBP4 | decreases | disrupt the RBP4-TTR interaction |
